US20110177970A1, “METHODS FOR PREDICTING OR MONITORING WHETHER A PATIENT AFFECTED BY A CANCER IS RESPONSIVE TO A TREATMENT WITH A MOLECULE OF THE TAXOID FAMILY” (Inserm (Institut National de la Sante et de la Recherche …, priority 2008, published 2011)

Columns and labels:
[1] = tested on: docetaxel resistant cells; conditions: cited from earlier work
[2] = tested on: parental IGR-CaP1 cells; test: WST1 cell proliferation assay, cytotoxic effect of docetaxel, parental cells; assay type: cell-based, human; conditions: docetaxel 1.25 nM to 50 nM, 72 h
Description: (§1) The data represent the mean of three different experiments, the error bars represent the SEM.
(§2) Several clonally-derived cells were obtained from the parental IGR-CaP1 cells by limit dilutions.

[3] = tested on: 3A11 clone (clonally-derived IGR-CaP1 cells); test: WST1 cell proliferation assay, cytotoxic effect of docetaxel, clone 3A11; assay type: cell-based, human
Description: as §1, §2

[4] = tested on: 3B1 clone (clonally-derived IGR-CaP1 cells); test: WST1 cell proliferation assay, cytotoxic effect of docetaxel, clone 3B1; assay type: cell-based, human
Description: as §1, §2

[5] = tested on: breast cancer metastatic tumours; conditions: cited from earlier work
[6] = tested on: patients treated with docetaxel; conditions: from the beginning or in a secondary way; cited from earlier work

| Structure (SMILES) | apoptosis [1] | expression of clusterin [1] | cell proliferation (WST1) [2] | effect on proliferation compared to parental IGR-CaP1 cells ([3]; 3A11 clone vs parental, p<0.001) | cell proliferation (WST1) ([3]; 3A11 clone, docetaxel 1.25 nM to 50 nM, 72 h) | effect on proliferation compared to parental IGR-CaP1 cells ([4]; 3B1 clone vs parental, p<0.001) | cell proliferation (WST1) ([4]; 3B1 clone, docetaxel 1.25 nM to 50 nM, 72 h) | metastatic tumours that respond [5] | patients who develop a resistance to the chemotherapy [6] |
| --- | --- | --- | --- | --- | --- | --- | --- | --- | --- |
| Oc1ccc(C=Cc2cc(O)cc(O)c2)cc1 [resveratrol] | increase of apoptosis | decreased expression of clusterin | – | – | – | – | – | – | – |
| CC(=O)O[C@@]12CO[C@@H]1C[C@H](O)[C@@]1(C)C(=O)[C@H](O)C3=C(C)[C@@H](OC(=O)[C@H](O)[C@@H](NC(=O)OC(C)(C)C)c4ccccc4)C[C@@](O)([C@@H](OC(=O)c4ccccc4)[C@H]21)C3(C)C [docetaxel] | – | – | decreased cell proliferation in a dose-dependent manner | significantly lower extent | decreased cell proliferation in a dose-dependent manner | significantly lower extent | decreased cell proliferation in a dose-dependent manner | 30 to 50% | almost half of the patients |
